In paper PMC5218480 (PLoS ONE, 2017):

System: MV-4-11 cells
Assay: Gene expression microarray analysis (Affymetrix PrimeView) and GSEA
Assay type: cell-based, human
Set-up: RFU PODN (11730768_x_at) / Fold change /veh PODN (11730768_x_at) / RFU LINC00158 (11744669_a_at) / Fold change /veh LINC00158 (11744669_a_at) / RFU DUSP10 (11751237_a_at) / Fold change /veh DUSP10 (11751237_a_at) / RFU ID3 (11757404_x_at) / Fold change /veh ID3 (11757404_x_at) / RFU PLEKHG5 (11737974_s_at) / Fold change /veh PLEKHG5 (11737974_s_at) / RFU LRRC4B (11730491_at) / Fold change /veh LRRC4B (11730491_at) / RFU GIMAP4 (11747438_a_at) / Fold change /veh GIMAP4 (11747438_a_at) / RFU KRT8 (11758183_x_at) / Fold change /veh KRT8 (11758183_x_at) / RFU CNN1 (11734310_a_at) / Fold change /veh CNN1 (11734310_a_at) / RFU VPS37D (11726825_at) / Fold change /veh VPS37D (11726825_at) / RFU C10orf10 (11716522_x_at) / Fold change /veh C10orf10 (11716522_x_at) / RFU KIR2DL2 /// KIR2DL4 /// KIR2DL5A /// KIR2DL5B /// KIR2DS1 /// KIR2DS2 /// KIR2DS3 /// KIR2DS4 /// KIR3DL3 /// KIR3DL3 /// KIR3DS1 (11738374_at) / Fold change /veh KIR2DL2 /// KIR2DL4 /// KIR2DL5A /// KIR2DL5B /// KIR2DS1 /// KIR2DS2 /// KIR2DS3 /// KIR2DS4 /// KIR3DL3 /// KIR3DL3 /// KIR3DS1 (11738374_at) / RFU C1QL1 (11718748_at) / Fold change /veh C1QL1 (11718748_at) / RFU TMPRSS4 (11747572_a_at) / Fold change /veh TMPRSS4 (11747572_a_at) / RFU HAMP (11756126_x_at) / Fold change /veh HAMP (11756126_x_at) / RFU RNFT2 (11725882_a_at) / Fold change /veh RNFT2 (11725882_a_at) / RFU NR4A2 (11747474_a_at) / Fold change /veh NR4A2 (11747474_a_at) / RFU ABCC12 (11746883_a_at) / Fold change /veh ABCC12 (11746883_a_at) / RFU TMEM136 (11760407_x_at) / Fold change /veh TMEM136 (11760407_x_at) / RFU CLDN22 /// WWC2 (11732394_at) / Fold change /veh CLDN22 /// WWC2 (11732394_at) / RFU HLA-DPB1 (11760878_x_at) / Fold change /veh HLA-DPB1 (11760878_x_at) / RFU SPINT1 (11716480_a_at) / Fold change /veh SPINT1 (11716480_a_at) / RFU GAP43 (11754022_s_at) / Fold change /veh GAP43 (11754022_s_at) / RFU A4GNT (11735810_at) / Fold change /veh A4GNT (11735810_at) / RFU PRB3 (11715151_x_at) / Fold change /veh PRB3 (11715151_x_at) / RFU TUBB4B (11761932_at) / Fold change /veh TUBB4B (11761932_at) / RFU CAPN14 (11732068_a_at) / Fold change /veh CAPN14 (11732068_a_at) / RFU TMCC2 (11721928_a_at) / Fold change /veh TMCC2 (11721928_a_at) / RFU IRGQ (11745062_a_at) / Fold change /veh IRGQ (11745062_a_at) / RFU FAM174B (11720279_a_at) / Fold change /veh FAM174B (11720279_a_at) / RFU TMPRSS4 (11748680_a_at) / Fold change /veh TMPRSS4 (11748680_a_at) / RFU FAM212B (11763350_a_at) / Fold change /veh FAM212B (11763350_a_at) / RFU PLEKHG5 (11743358_a_at) / Fold change /veh PLEKHG5 (11743358_a_at) / RFU ZSCAN30 (11745921_a_at) / Fold change /veh ZSCAN30 (11745921_a_at) / RFU CMKLR1 (11741424_a_at) / Fold change /veh CMKLR1 (11741424_a_at) / RFU LOC101060620 /// MAPK8IP1 (11723275_at) / Fold change /veh LOC101060620 /// MAPK8IP1 (11723275_at) / RFU SPTSSB (11747773_x_at) / Fold change /veh SPTSSB (11747773_x_at) / RFU PRSS12 (11739890_at) / Fold change /veh PRSS12 (11739890_at) / RFU BIN1 (11741810_x_at) / Fold change /veh BIN1 (11741810_x_at) / RFU WNT11 (11732464_a_at) / Fold change /veh WNT11 (11732464_a_at) / RFU C10orf10 (11716521_a_at) / Fold change /veh C10orf10 (11716521_a_at) / RFU C5orf56 (11738089_at) / Fold change /veh C5orf56 (11738089_at) / RFU CYB561 (11721691_x_at) / Fold change /veh CYB561 (11721691_x_at) / RFU ANKRD19P (11752326_a_at) / Fold change /veh ANKRD19P (11752326_a_at) / RFU OR2T12 /// OR2T33 /// OR2T8 (11738714_s_at) / Fold change /veh OR2T12 /// OR2T33 /// OR2T8 (11738714_s_at) / RFU VCAN (11748164_a_at) / Fold change /veh VCAN (11748164_a_at) / RFU JSRP1 (11732532_at) / Fold change /veh JSRP1 (11732532_at) / RFU KRTAP10-11 (11738290_x_at) / Fold change /veh KRTAP10-11 (11738290_x_at) / RFU MYO3A (11730013_a_at) / Fold change /veh MYO3A (11730013_a_at) / RFU EBF3 (11725865_a_at) / Fold change /veh EBF3 (11725865_a_at) / RFU CAMK2N1 (11719241_x_at) / Fold change /veh CAMK2N1 (11719241_x_at) / RFU C5orf56 (11738088_a_at) / Fold change /veh C5orf56 (11738088_a_at) / RFU OLFML3 (11715873_a_at) / Fold change /veh OLFML3 (11715873_a_at) / RFU LOC100653217 /// NTM (11731650_a_at) / Fold change /veh LOC100653217 /// NTM (11731650_a_at) / RFU MAPK11 (11762145_a_at) / Fold change /veh MAPK11 (11762145_a_at) / RFU FIZ1 (11724087_x_at) / Fold change /veh FIZ1 (11724087_x_at) / RFU OASL (11726364_x_at) / Fold change /veh OASL (11726364_x_at) / RFU SOX15 (11748057_x_at) / Fold change /veh SOX15 (11748057_x_at) / RFU CD79A (11719716_a_at) / Fold change /veh CD79A (11719716_a_at) / RFU HIST1H1D (11736915_at) / Fold change /veh HIST1H1D (11736915_at) / RFU CASKIN2 (11723855_a_at) / Fold change /veh CASKIN2 (11723855_a_at) / RFU LOC730098 (11760151_x_at) / Fold change /veh LOC730098 (11760151_x_at) / RFU OR4N2 (11742367_at) / Fold change /veh OR4N2 (11742367_at) / RFU PRRT2 (11749266_a_at) / Fold change /veh PRRT2 (11749266_a_at) / RFU SNX32 (11753110_a_at) / Fold change /veh SNX32 (11753110_a_at) / RFU CDHR5 (11726645_a_at) / Fold change /veh CDHR5 (11726645_a_at) / RFU RCAN1 (11760418_a_at) / Fold change /veh RCAN1 (11760418_a_at) / RFU FAM167A (11723789_a_at) / Fold change /veh FAM167A (11723789_a_at) / RFU FAM26E (11764081_at) / Fold change /veh FAM26E (11764081_at) / RFU ISYNA1 (11749810_s_at) / Fold change /veh ISYNA1 (11749810_s_at) / RFU ACY1 (11761880_at) / Fold change /veh ACY1 (11761880_at) / RFU 11764098_at / Fold change /veh 11764098_at / RFU SAMD14 (11745864_x_at) / Fold change /veh SAMD14 (11745864_x_at) / RFU NPB (11741838_a_at) / Fold change /veh NPB (11741838_a_at) / RFU TMPRSS6 (11731388_a_at) / Fold change /veh TMPRSS6 (11731388_a_at) / RFU KRTAP10-2 (11738614_at) / Fold change /veh KRTAP10-2 (11738614_at) / RFU ARHGAP8 /// PRR5-ARHGAP8 (11727945_x_at) / Fold change /veh ARHGAP8 /// PRR5-ARHGAP8 (11727945_x_at) / RFU KRTAP5-7 /// NADSYN1 (11734609_at) / Fold change /veh KRTAP5-7 /// NADSYN1 (11734609_at) / RFU RASL12 (11751679_a_at) / Fold change /veh RASL12 (11751679_a_at) / RFU CDKN2B (11736163_a_at) / Fold change /veh CDKN2B (11736163_a_at) / RFU PRF1 (11729649_at) / Fold change /veh PRF1 (11729649_at) / RFU, ZNF638 /// ZNF638-IT1 / Fold change vs veh, ZNF638 /// ZNF638-IT1 / RFU, PANK3 / Fold change vs veh, PANK3 / RFU, SH3YL1 / Fold change vs veh, SH3YL1 / RFU, ZEB2 / Fold change vs veh, ZEB2 / RFU, NRIP1 / Fold change vs veh, NRIP1 / RFU, PTTG1IP / Fold change vs veh, PTTG1IP / RFU, CAPN2 / Fold change vs veh, CAPN2 / RFU, MED14 / Fold change vs veh, MED14 / RFU, SNORA58 / Fold change vs veh, SNORA58 / RFU, C1orf63 / Fold change vs veh, C1orf63 / RFU, LRRFIP1 / Fold change vs veh, LRRFIP1 / RFU, NDUFAF7 / Fold change vs veh, NDUFAF7 / RFU, SLC12A2 / Fold change vs veh, SLC12A2 / RFU, IBTK / Fold change vs veh, IBTK / RFU, ESF1 / Fold change vs veh, ESF1 / Fold change vs veh, TMEM50B / RFU, TAOK1 / Fold change vs veh, TAOK1 / RFU, ACBD3 / Fold change vs veh, ACBD3 / RFU, TMA16 / Fold change vs veh, TMA16 / RFU, RWDD3 / Fold change vs veh, RWDD3 / RFU, BCAT1 / Fold change vs veh, BCAT1 / RFU, EDEM3 / Fold change vs veh, EDEM3 / RFU, TMEM33 / Fold change vs veh, TMEM33 / RFU, WDR75 / Fold change vs veh, WDR75 / RFU, AHCTF1 / Fold change vs veh, AHCTF1 / RFU, TFRC / Fold change vs veh, TFRC / RFU, ZDHHC17 / Fold change vs veh, ZDHHC17 / RFU, NOM1 / Fold change vs veh, NOM1 / RFU, ARL8B / Fold change vs veh, ARL8B / RFU, ZBTB11 / Fold change vs veh, ZBTB11 / RFU, TAMM41 / Fold change vs veh, TAMM41 / RFU, KIAA1704 /// LOC100996395 / Fold change vs veh, KIAA1704 /// LOC100996395 / RFU, ING1 / Fold change vs veh, ING1 / RFU, TRMT61B / Fold change vs veh, TRMT61B / RFU, FUBP3 / Fold change vs veh, FUBP3 / RFU, TP53 / Fold change vs veh, TP53 / RFU, TNKS2 / Fold change vs veh, TNKS2 / RFU, ZFP14 / Fold change vs veh, ZFP14 / RFU, ACTR2 / Fold change vs veh, ACTR2 / RFU, PPP3R1 / Fold change vs veh, PPP3R1 / RFU, PIK3R1 / Fold change vs veh, PIK3R1 / RFU, HNRNPA1 / Fold change vs veh, HNRNPA1 / RFU, RNF170 / Fold change vs veh, RNF170 / RFU, ZNF28 / Fold change vs veh, ZNF28 / RFU, RNGTT / Fold change vs veh, RNGTT / RFU, OGT / Fold change vs veh, OGT / RFU, BRD1 / Fold change vs veh, BRD1 / RFU, MARS / Fold change vs veh, MARS / RFU, ZNF655 / Fold change vs veh, ZNF655 / RFU, FAHD1 / Fold change vs veh, FAHD1 / RFU, BDP1 / Fold change vs veh, BDP1 / RFU, LRRCC1 / Fold change vs veh, LRRCC1 / RFU, ARID1A / Fold change vs veh, ARID1A / RFU, ZNF146 / Fold change vs veh, ZNF146 / RFU, ZNF330 / Fold change vs veh, ZNF330 / RFU, GPN3 / Fold change vs veh, GPN3 / RFU, C9orf123 / Fold change vs veh, C9orf123 / RFU, N4BP2L2 / Fold change vs veh, N4BP2L2 / RFU, ARFIP1 / Fold change vs veh, ARFIP1 / RFU, FAM179B / Fold change vs veh, FAM179B / RFU, BCL10 / Fold change vs veh, BCL10 / RFU, UHRF1BP1L / Fold change vs veh, UHRF1BP1L / RFU, BET1 / Fold change vs veh, BET1 / RFU, CNOT2 / Fold change vs veh, CNOT2 / RFU, ZNF268 / Fold change vs veh, ZNF268 / Fold change vs veh, ZNF507 / RFU, DGCR2 / Fold change vs veh, DGCR2 / RFU, WDSUB1 / Fold change vs veh, WDSUB1 / Fold change vs veh, HSP90B1 /// MIR3652 / RFU, ADSS / Fold change vs veh, ADSS / RFU, GK / Fold change vs veh, GK / RFU, ZNF148 / Fold change vs veh, ZNF148 / RFU, TAF9 / Fold change vs veh, TAF9 / RFU, SLC1A5 / Fold change vs veh, SLC1A5 / RFU, SLMO2 / Fold change vs veh, SLMO2 / RFU, ABCC4 / Fold change vs veh, ABCC4 / RFU, LOC101060439 /// RAP1B / Fold change vs veh, LOC101060439 /// RAP1B / RFU, RFX7 / Fold change vs veh, RFX7 / RFU, GTPBP10 / Fold change vs veh, GTPBP10 / RFU, CNEP1R1 / Fold change vs veh, CNEP1R1 / RFU, BIVM-ERCC5 /// ERCC5 / Fold change vs veh, BIVM-ERCC5 /// ERCC5 / RFU, ILF3 / Fold change vs veh, ILF3 / RFU 11762660_at / Fold change /veh 11762660_at / RFU VCAN (11757783_s_at) / Fold change /veh VCAN (11757783_s_at) / RFU DDX43 (11728927_at) / Fold change /veh DDX43 (11728927_at) / RFU KRT8 (11758188_x_at) / Fold change /veh KRT8 (11758188_x_at) / RFU NKD1 (11759106_at) / Fold change /veh NKD1 (11759106_at) / RFU SRD5A1 (11742802_a_at) / Fold change /veh SRD5A1 (11742802_a_at) / RFU TPSAB1 /// TPSB2 (11721975_s_at) / Fold change /veh TPSAB1 /// TPSB2 (11721975_s_at) / RFU GSTM3 (11746129_a_at) / Fold change /veh GSTM3 (11746129_a_at) / RFU IL23R (11737362_x_at) / Fold change /veh IL23R (11737362_x_at) / RFU TMEM51 (11727254_a_at) / Fold change /veh TMEM51 (11727254_a_at) / RFU PIWIL2 (11732686_x_at) / Fold change /veh PIWIL2 (11732686_x_at) / RFU ORM1 (11744905_x_at) / Fold change /veh ORM1 (11744905_x_at) / RFU CCDC152 (11743942_at) / Fold change /veh CCDC152 (11743942_at) / RFU ECM1 (11717891_a_at) / Fold change /veh ECM1 (11717891_a_at) / RFU IL23R (11748794_a_at) / Fold change /veh IL23R (11748794_a_at) / RFU TNFAIP8L3 (11732012_x_at) / Fold change /veh TNFAIP8L3 (11732012_x_at) / RFU MBOAT4 (11741988_at) / Fold change /veh MBOAT4 (11741988_at) / RFU 11764193_at / Fold change /veh 11764193_at / RFU TMEM53 (11763286_at) / Fold change /veh TMEM53 (11763286_at) / RFU MAGEB2 (11727129_at) / Fold change /veh MAGEB2 (11727129_at) / RFU TMEM200A (11744735_a_at) / Fold change /veh TMEM200A (11744735_a_at) / RFU CCDC152 (11751479_a_at) / Fold change /veh CCDC152 (11751479_a_at) / RFU FAM211A (11726209_a_at) / Fold change /veh FAM211A (11726209_a_at) / RFU RGS16 (11746705_a_at) / Fold change /veh RGS16 (11746705_a_at) / RFU VCAN (11755009_s_at) / Fold change /veh VCAN (11755009_s_at) / RFU RHOB (11743442_s_at) / Fold change /veh RHOB (11743442_s_at) / RFU RGS16 (11720943_a_at) / Fold change /veh RGS16 (11720943_a_at) / RFU RGS16 (11720944_at) / Fold change /veh RGS16 (11720944_at) / RFU, VPS4B / Fold change vs veh, VPS4B / RFU, CREB1 / Fold change vs veh, CREB1 / RFU, DNAJC13 / Fold change vs veh, DNAJC13 / RFU, GNAQ / Fold change vs veh, GNAQ / RFU, CDK5R1 / Fold change vs veh, CDK5R1 / RFU, ZRANB3 / Fold change vs veh, ZRANB3 / RFU, CUL4A / Fold change vs veh, CUL4A / RFU, CCNY / Fold change vs veh, CCNY / RFU, UFL1 / Fold change vs veh, UFL1 / RFU, COG3 / Fold change vs veh, COG3 / RFU, DIAPH2 / Fold change vs veh, DIAPH2 / RFU, SKA2 / Fold change vs veh, SKA2 / RFU, AFF3 / Fold change vs veh, AFF3 / RFU, LMF1 / Fold change vs veh, LMF1 / RFU, IPO11 / Fold change vs veh, IPO11 / RFU, DFFB / Fold change vs veh, DFFB / RFU, FOXP1 / Fold change vs veh, FOXP1 / RFU, CARD8 / Fold change vs veh, CARD8 / RFU, STRN3 / Fold change vs veh, STRN3 / RFU, ADK / Fold change vs veh, ADK / RFU, RASSF2 / Fold change vs veh, RASSF2 / RFU, WIPF1 / Fold change vs veh, WIPF1 / RFU, LARP1B / Fold change vs veh, LARP1B / RFU, RASA1 / Fold change vs veh, RASA1 / RFU, RB1 / Fold change vs veh, RB1 / RFU, PPFIA1 / Fold change vs veh, PPFIA1 / RFU, MAT2A / Fold change vs veh, MAT2A / RFU, CCT5 / Fold change vs veh, CCT5 / RFU, WDR92 / Fold change vs veh, WDR92 / RFU, CUX1 / Fold change vs veh, CUX1 / RFU, TTC7A / Fold change vs veh, TTC7A / RFU, TMEM135 / Fold change vs veh, TMEM135 / RFU, DEPTOR / Fold change vs veh, DEPTOR / RFU, CPM / Fold change vs veh, CPM / RFU, DNAJB6 / Fold change vs veh, DNAJB6 / RFU, CACNA2D3 / Fold change vs veh, CACNA2D3 / RFU, DTX4 / Fold change vs veh, DTX4 / RFU, TFCP2 / Fold change vs veh, TFCP2 / RFU, GMCL1 /// GMCL1P1 / Fold change vs veh, GMCL1 /// GMCL1P1 / RFU, AEBP2 / Fold change vs veh, AEBP2 / RFU, SNHG1 /// SNORD22 /// SNORD25 /// SNORD26 /// SNORD27 /// SNORD28 /// SNORD29 /// SNORD31 / Fold change vs veh, SNHG1 /// SNORD22 /// SNORD25 /// SNORD26 /// SNORD27 /// SNORD28 /// SNORD29 /// SNORD31 / Fold change (Aza/veh), C12orf56 (ProbeSet 11735607_a_at) / Fold change (ACY-1035/veh), C12orf56 (ProbeSet 11735607_a_at) / Fold change (Aza/veh), FGFR1OP (ProbeSet 11751329_s_at) / Fold change (ACY-1035/veh), FGFR1OP (ProbeSet 11751329_s_at) / Fold change (Aza/veh), VPS36 (ProbeSet 11739960_a_at) / Fold change (ACY-1035/veh), VPS36 (ProbeSet 11739960_a_at) / RFU SYPL1 (11715823_x_at) / Fold change /veh SYPL1 (11715823_x_at) / RFU IGFBP7 (11715501_s_at) / Fold change /veh IGFBP7 (11715501_s_at) / RFU REEP3 (11722064_at) / Fold change /veh REEP3 (11722064_at) / RFU IGLL1 (11728026_x_at) / Fold change /veh IGLL1 (11728026_x_at): dose or concentration left out as unconfirmed
Conditions: ProbeSet 11721611_a_at; LIST D

Nc1ncn([C@@H]2O[C@H](CO)[C@@H](O)[C@H]2O)c(=O)n1 [azacitidine]
RFU, IPO11: 64.89 RFU
